Measurements as given in patent US20260159512A1, “BCAT2 INHIBITORS” (AGIOS PHARMACEUTICALS, INC., priority 2021, published 2026).
“And” between values parts separate entries of the source, which are not always exact repeats. Identical values can stand only once.

What was measured:
Settings in all cases: average where tested multiple times
hBCAT1 = target: T1, hBCAT1 (Homo sapiens, UniProt P54687); assay: BCAT1 in vitro enzyme inhibition assay (resazurin/diaphorase-coupled fluorescence); type: biochemical
T1 sequence (P54687 1-386): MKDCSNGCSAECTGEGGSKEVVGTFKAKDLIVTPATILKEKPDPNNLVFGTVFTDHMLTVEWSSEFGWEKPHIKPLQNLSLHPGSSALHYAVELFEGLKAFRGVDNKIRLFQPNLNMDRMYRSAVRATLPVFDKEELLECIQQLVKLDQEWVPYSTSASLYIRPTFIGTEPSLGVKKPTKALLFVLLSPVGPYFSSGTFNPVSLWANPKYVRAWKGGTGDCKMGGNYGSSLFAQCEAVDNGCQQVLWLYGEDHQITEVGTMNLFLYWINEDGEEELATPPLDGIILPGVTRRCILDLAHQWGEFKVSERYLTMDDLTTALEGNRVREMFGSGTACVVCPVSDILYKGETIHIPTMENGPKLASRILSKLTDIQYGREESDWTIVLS
Procedure, shortened: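 Human BCAT1 activity read by resazurin/diaphorase-coupled fluorescence. Compounds added from 50× DMSO stocks at 1:50, giving 10-point 3-fold titrations from 100 μM top final concentration. Run in technical duplicate; repeat tests averaged.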

BCAT2 [1] = target: T2, BCAT2 (Homo sapiens, UniProt O15382); assay: BCAT2 in vitro enzyme inhibition assay (resazurin/diaphorase-coupled fluorescence); type: biochemical
T2 sequence (O15382 28-392): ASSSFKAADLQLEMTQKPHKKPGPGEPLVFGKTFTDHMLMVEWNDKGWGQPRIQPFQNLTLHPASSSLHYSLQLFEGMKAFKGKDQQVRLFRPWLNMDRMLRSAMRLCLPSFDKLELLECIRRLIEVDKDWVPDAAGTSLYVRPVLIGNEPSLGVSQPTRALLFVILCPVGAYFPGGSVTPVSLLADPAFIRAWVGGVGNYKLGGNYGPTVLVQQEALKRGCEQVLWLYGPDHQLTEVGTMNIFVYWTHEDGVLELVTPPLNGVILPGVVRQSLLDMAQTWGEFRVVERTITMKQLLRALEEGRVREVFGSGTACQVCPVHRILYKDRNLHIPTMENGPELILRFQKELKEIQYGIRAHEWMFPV
Procedure, shortened: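 Coupled fluorescence readout: glutamate formed from L-leucine/α-ketoglutarate transamination drives GDH/NAD/diaphorase reduction of resazurin (Ex 540/Em 590). Human BCAT2 was first exposed 1 h at room temperature to compound, top final 100 μM in 3-fold, 10-point series; substrate reaction ran 1 h before SDS quench, in technical duplicate with DMSO max and enzyme-free min controls.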

BCAT2 [2] = target: T2, BCAT2; assay: BCAT2 in vitro cell inhibition using engineered A549 cells (KMV cell assay, 13C6-KMV by LC-MS/MS); type: cell-based; set-up: The result was an engineered A549 cell line that expressed endogenous BCAT2; endogenous in cells; host or cells: A549 cells with MUT and BCAT1 knocked out by CRISPR/CAS9

| Compound | IC50 (hBCAT1) [nM] | IC50 (BCAT2 [1]) [nM] | IC50 (BCAT2 [2]) |
| --- | --- | --- | --- |
| O=C(N[C@H]1CCC[C@@H](n2c(-c3ncccc3F)nc3cnc(-c4nc[nH]n4)cc32)C1)c1ccc(Cl)s1 [Example 80, 5-chloro-N-((1S,3R)-3-(2-(3-fluoropyridin-2-yl)-6-(1H-1,2,4-triazol-3-yl)-1H-imidazo[4,5-c]pyridin-1-yl)cyclohexyl)thiophene-2-carboxamide] | < 500 | ≤ 100 | ≤ 100 nM |
| CC(C)[C@H](N)c1nc2cnc(-c3ccccn3)cc2n1[C@@H]1CCC[C@H](NC(=O)c2ncc(Cl)s2)C1 [Example 166, N-((1S,3R)-3-(2-((S)-1-amino-2-methylpropyl)-6-(pyridin-2-yl)-1H-imidazo[4,5-c]pyridin-1-yl)cyclohexyl)-5-chlorothiazole-2-carboxamide] | < 500 | ≤ 100 | 100 to 500 nM |
| O=C(NC1CNCC(n2c(-c3ncccc3F)nc3cnc(-n4nccn4)cc32)C1)c1ncc(C(F)F)s1 (stereo not drawn) [Example 125, 5-(difluoromethyl)-N-(5-(2-(3-fluoropyridin-2-yl)-6-(2H-1,2,3-triazol-2-yl)-1H-imidazo[4,5-c]pyridin-1-yl)piperidin-3-yl)thiazole-2-carboxamide] | 1000 to 5000 | ≤ 100 | 100 to 500 nM |
| COc1cccc(F)c1-c1nc2cnc(-c3nc[nH]n3)cc2n1[C@@H]1CCC[C@H](NC(=O)c2ccc(Cl)s2)C1 [Example 347, 5-chloro-N-((1S,3R)-3-(2-(2-fluoro-6-methoxyphenyl)-6-(1H-1,2,4-triazol-3-yl)-1H-imidazo[4,5-c]pyridin-1-yl)cyclohexyl)thiophene-2-carboxamide] | < 500 | ≤ 100 | ≤ 100 nM |
| COCc1nc2cnc(-c3nc[nH]n3)cc2n1[C@@H]1CCC[C@H](NC(=O)c2ncc(Cl)s2)C1 [Example 91, 5-chloro-N-[(1S,3R)-3-[2-(methoxymethyl)-6-(1H-1,2,4-triazol-3-yl)imidazo[4,5-c]pyridin-1-yl]cyclohexyl]thiazole-2-carboxamide] | 1000 to 5000 | 100 to 500 | > 1000 nM |
| COC(=O)c1cnn(-c2cc3c(cn2)nc(-c2ccccn2)n3[C@@H]2CCC[C@H](NC(=O)c3ncc(C(F)F)s3)C2)n1 [Example 64, methyl 2-(1-((1R,3S)-3-(5-(difluoromethyl)thiazole-2-carboxamido)cyclohexyl)-2-(pyridin-2-yl)-1H-imidazo[4,5-c]pyridin-6-yl)-2H-1,2,3-triazole-4-carboxylate] | 1000 to 5000 | ≤ 100 | 100 to 500 nM and 500 to 1000 nM |
| Cn1ccc(-c2cc3c(cn2)nc(-c2ccccc2F)n3[C@@H]2CCC[C@H](NC(=O)c3ncc(Cl)s3)C2)n1 [Example 181, 5-chloro-N-((1S,3R)-3-(2-(2-fluorophenyl)-6-(1-methyl-1H-pyrazol-3-yl)-1H-imidazo[4,5-c]pyridin-1-yl)cyclohexyl)thiazole-2-carboxamide] | < 500 | ≤ 100 | ≤ 100 nM |
| O=C(N[C@H]1CCC[C@@H](n2c(-c3c(O)cccc3F)nc3cnc(-c4nc[nH]n4)cc32)C1)c1ccc(Cl)s1 [Example 338, 5-chloro-N-((1S,3R)-3-(2-(2-fluoro-6-hydroxyphenyl)-6-(1H-1,2,4-triazol-3-yl)-1H-imidazo[4,5-c]pyridin-1-yl)cyclohexyl)thiophene-2-carboxamide] | < 500 | ≤ 100 | ≤ 100 nM |
| CO[C@@H]1C[C@H](NC(=O)c2ncc(Cl)s2)C[C@H](n2c(CC(C)C)nc3cnc(-n4nccn4)cc32)C1 (single isomer, unassigned) [Example 439] | < 500 | ≤ 100 | ≤ 100 nM |
| CN1C[C@H](NC(=O)c2ccc(Cl)s2)C[C@H](n2c(-c3ccccc3F)nc3cnc(-c4nc[nH]n4)cc32)C1 [Example 264, 5-chloro-N-((3R,5S)-5-(2-(2-fluorophenyl)-6-(1H-1,2,4-triazol-3-yl)-1H-imidazo[4,5-c]pyridin-1-yl)-1-methylpiperidin-3-yl)thiophene-2-carboxamide] | < 500 | ≤ 100 | ≤ 100 nM |
